According to patent US8334107B2, “Detection systems utilizing supported lipid bilayers” (priority 2005, dated 2012):

Key:
[1] = Lipid bilayers on MS-PPE as barriers to superquenching by AQS, flow cytometry; format: physicochemical; conditions: 10 μM AQS
Method: Small unilamellar vesicles (SUVs) were prepared using a 2 mM solution of DPPC, 1 mM egg-PC, or 2 mM DMPG in chloroform. The lipid was dried by nitrogen gas followed by vacuum. The dried lipid was resuspended in phosphate buffer saline (PBS), pH 7.4, and incubated at 37° C. for 10 min, then sonicated to optical clarity in a sonication bath (Branson Cleaning Equipment Co., Shelton, Conn.).
Lipid bilayers were assembled on microspheres as previously described (Buranda et al. Langmuir 19:1654-1663 (2003); Bayerl & Bloom, Biophys J 58:357-362 (1990)). Briefly, the small unilamellar vesicles were incubated at 37° C. for 5 min, and PPE-coated microspheres were added to them, and mixed at room temperature using a vortex mixer for 30 min, followed by incubation at 37° C. for 5 min without mixing. The lipid-coated PPE-coated microspheres were washed by suspension in PBS followed by centrifugation, where the clear supernatant was decanted and discarded. The cycle of resuspension, centrifugation, and decanting, was repeated four additional times. Finally, the lipid-coated PPE-coated microspheres were resuspended in PBS.
(§1) Bead suspensions of 2.5×10^5 PPE-coated microspheres in 200 μL PBS were analyzed using a FACScan flow cytometer (Becton-Dickinson, Sunnyvale, Calif.) with excitation at 488 nm. Fluorescence signals were acquired on the FL-1 channel (525 nm) using log amplification and analyzed with the CellQuest software.
The feasibility of using the zwitterionic lipids DPPC and egg-PC to form supported lipid bilayers on MS-PPE was assessed (FIG. 15). […] Addition of AQS produced an almost 40% reduction of the polymer fluorescence, yet the fluorescence of the DPPC bilayer coated MS-PPE in the presence of the AQS quencher was still almost 10-fold higher than that of MS-PPE and quencher without the lipid.
The PPE polymer is positively charged. […] However when using 2 mM DMPG, the modulation of polymer fluorescence was relatively small (FIG. 15). […] Thus, upon addition of quencher to MS-PPE after treatment with DMPG ˜70% of fluorescence of the PPE was retained (FIGS. 16A and 16B).

[2] = test system: EPC bilayer on porous silica beads; assay: Suspension study: release of fluorescein dye from lipid bilayer coated porous silica beads; format: biochemical
Method: Lipid coatings on beads were disrupted using 10% Triton X-100. Each sample in micro-centrifuge tubes contained 5 mg of lipid bilayer coated, fluorescein entrapped beads in 200 μL of Tris buffer. Samples were centrifuged and 100 μL aliquots of supernatant were mixed with either 100 μL of Tris buffer or 100 μL of 10% Triton X-100® detergent in separate centrifuge tubes. The fluorescence intensity of each mixture was immediately (time=0) recorded. Each mixture was mixed with its respective bead sample in centrifuge tube and incubated at 25° C. in the dark. After 30 min, samples were centrifuged and fluorescent intensity of the supernatants was measured. Beads were resuspended in their respective supernatants. Fluorescence intensity was again measured at 90 and 150 min.
Experimental procedures were similar to the Triton X-100® detergent based analysis. For experiments with α-toxin, three different toxin concentrations: 15, 45 and 250 μg/mL were used at 37° C. and 25° C. Beads coated with EPC were used. In the experiments with melittin, 220 μM melittin was used with beads coated with either 100% EPC, 10:90 (molar ratio) mixture of DMPG and EPC or an 80:20 mixture of DMPG and DMPC. All melittin experiments were conducted at 25° C.
Previous suspension studies on disruption of lipid bilayers have been performed with small unilamellar vesicles where disruption of the lipid bilayer membranes was detected by monitoring the unquenching of a highly concentrated, encapsulated dye. In the present work disruption was monitored via release of fluorescein dye from porous beads, by measuring the increase in fluorescence intensity of the supernatant at 520 nm. Beads were first suspended in Tris buffer containing the disruptor. After selected time periods, beads were sedimented by centrifuging and a portion of the supernatant was taken for the measurement. The measured portion was added back to the bead sample to permit continuous monitoring. The scattering effect that was present in vesicle based studies was minimized by measuring only the supernatant after centrifugation of the beads.

[3] = test system: DMPG lipid bilayer on MS-PPE; assay: Disruption of DMPG lipid bilayer on MS-PPE detected by superquenching with AQS, flow cytometry; format: biochemical
Method: Lipid bilayers were disrupted by adding Triton X-100® detergent to the bead suspension to a final concentration of 0.25% (w/v).
as §1
Bead suspensions of 2.5×10^5 DMPG-coated MS-PPE in 200 μL of PBS were analyzed using a FACScan flow cytometer (Becton-Dickinson, Sunnyvale, Calif.) with excitation at 488 nm. Fluorescence signals were acquired on FL-1 channel (525 nm) using log amplification and analyzed with the CellQuest software. Kinetic analysis of disruption of supported lipid bilayer by melittin was performed by acquiring real-time data with continuous mixing of samples (10^6 MS-PPE in 800 μl of PBS) using a magnetic stirrer. The raw data were analyzed using IDL Query software developed by Bruce Edwards (Cancer Center, University of New Mexico, Albuquerque, N. Mex.).
Because an anionic lipid was used to form a lipid bilayer around MS-PPE, it was expected that MLT will disrupt the DMPG lipid bilayer by such a detergent-like action. This was tested by adding 10 μM AQS to DMPG-coated MS-PPE followed by treatment with one of the following: Triton X-100® detergent, synthetic MLT (sMLT), or natural MLT (nMLT) and immediately reading the fluorescence by flow cytometry. […] These histograms resemble the ones reported previously for MS-PPE, without a lipid coating, in absence and in presence of AQS.
The kinetics of disruption of supported lipid bilayer by MLT were monitored by measuring real-time changes in fluorescence intensity by flow cytometry (FIG. 19). Suspensions of 10^6 DMPG-coated MS-PPE in 800 μL of PBS were treated with AQS at a final concentration of 10 μM, then with either sMLT, Triton X-100® detergent, or no treatment. […] Treatment with sMLT in the absence of AQS led to an increase in normalized fluorescence (FIG. 19, trace A). This can be attributed to disruption of the lipid bilayer by sMLT, and is consistent with a reversal of the slight quenching of fluorescence caused by the formation of a DMPG lipid bilayer over MS-PPE. Addition of AQS alone to DMPG-coated MS-PPE (FIG. 19, trace C) led to a 20% reduction in fluorescence as reported earlier. Addition of Triton X-100® detergent to DMPG-coated MS-PPE after the addition of AQS (first dip in trace E, FIG. 19) caused immediate decrease in fluorescence to ˜10% of its original value (second dip in trace E, FIG. 19). In contrast, addition of sMLT, after the addition of AQS, (FIG. 19, trace D) led to a gradual reduction of fluorescence intensity to ˜20% of the original value. Although MLT forms dimers at high concentrations (Dempsey, C. E. Biochim. Biophys. Acta 1990, 1031, 143-161), it is monomeric at the concentrations used in this study. On the other hand, Triton X-100® detergent forms micelles at the concentration used in this study.

[4] = test system: lipid membranes on porous silica beads (containing fluorescein dye); assay: Microfluidic study: detection of membrane interaction by release of dye from bead packed microcolumn; format: biochemical
Method: To create a packed microcolumn of lipid coated beads containing fluorescein, 2 μL of silica bead (diameter=20 μm) containing suspension (0.05 mg/μL) was injected into a microfluidic channel by applying vacuum at the outlet port of the microchannel, followed by the injection of 10 μL of fluorescein-entrapped bead (diameter=10 μm) containing suspension (0.05 mg/μL). The bead packed microchannel was mounted onto a vertical translational stage located in the sample holder space of the fluorimeter. Just below the bead segment, the microchannel was irradiated with an Argon ion laser (λ=488 nm, 8-10 mW) excitation. The inlet of the column was connected to a buffer reservoir while the outlet was connected to a vacuum source. As the fluorescence intensity at 520 nm was monitored, several microliters of Tris buffer was passed through the microchannel before the injection of Triton X-100® detergent. […]
The packed segment was about 2 mm long. The disruption of the membranes on porous silica beads (containing fluorescein dye) by Triton X-100® detergent was detected by monitoring the release of the dye from the beads, at a point just below the bead segment as indicated in FIG. 7B. […] The microcolumn was irradiated at 488 nm and fluorescence intensity was monitored at 520 nm. […]

[5] = 0.25% (w/v) Triton X-100, 10 μM AQS

Compound: CCCCCCCCCCCCCC(=O)OC[C@H](COP(=O)([O-])OCC(O)CO)OC(=O)CCCCCCCCCCCCC.[Na+] (mixture of isomers) [DMPG, 1,2-dimyristoyl-sn-glycero-3-[phosphor-rac-(1-glycerol)] sodium salt]
- fluorescence of the PPE retained upon addition of quencher ([1]; 2 mM DMPG): ~70%

Compound: CCCCCCCCCCCCCCCC(=O)OC[C@H](COP(=O)([O-])OCC[N+](C)(C)C)OC(=O)CCCCCCCCCCCCCCC [DPPC, 1,2-dipalmitoyl-sn-glycero-3-phosphatidylcholine]
- fluorescence with AQS relative to MS-PPE and quencher without the lipid [1]: ~10 fold
- reduction (quenching) of polymer fluorescence on addition of AQS ([1]; lipid coated MS-PPE): ~40%

Compound: Triton X-100
- increase in fluorescence intensity of the supernatant ([2]; 10% Triton X-100, first 30 min, 25° C.): more than 70 fold
- increase in fluorescence intensity (total disruption of bilayers) ([2]; Triton X-100 added after 150 min of α-toxin exposure): 50 fold
- fluorescence after bilayer disruption, of the fluorescence of DMPG-coated MS-PPE in the absence of quencher [3, 5]: ~18%
- fluorescence after bilayer disruption, of the original fluorescence value [3, 5]: ~10%
- fluorescence intensity, of the original value ([3]; real-time kinetics, added after 10 μM AQS (traces D, E)): ~10%
- initial signal (1st peak) less than that observed in suspension studies ([4]; 10% Triton X-100, microcolumn versus suspension): ~80%
- increase in fluorescence intensity at detection point ([4]; 10 μL of 10% Triton X-100, about 5 min no flow incubation): 25 fold
